Test results from patent publication US20170105920A1, “COSMETIC METHOD USING METAL PHTHALOCYANINE DERIVATIVE” (I'FORET CO., LTD., priority 2010, published 2017).

Test: Effectiveness test on suppression of fading, one week at 50° C., visual evaluation
Type: physicochemical
Procedure: Each beauty essence was kept for one week at 50° C. and its stability was visually evaluated compared to the beauty essence immediately after preparation.
Expert testers judged the beauty essences tested on a scale of three as specified below: […]

Which results are given for O=P(O)(O)O[C@H]1[C@H](OP(=O)(O)O)[C@@H](OP(=O)(O)O)[C@H](OP(=O)(O)O)[C@@H](OP(=O)(O)O)[C@H]1OP(=O)(O)O [Phytic acid, phytic acid]?
fading (in words) (component blended by 0.05%): hardly any fading; fading (in words) (component blended by 0.1%): hardly any fading

Which results are given for O=C([O-])CN(CCN(CC(=O)O)CC(=O)O)CC(=O)[O-].[Na+].[Na+] [EDTA-2Na, sodium EDTA-2]?
Judgment of appearance (anti-fading) (anti-fading component 0.10% in recipe of Example 4 (0.01% iron phthalocyanine tetracarboxylic acid)): Δ~X; fading (in words) (component blended by 0.1%): Marked fading; fading (in words) (component blended by 0.2%): some fading
